Results: US8759334B2, “Compounds useful for the treatment of metabolic and inflammatory diseases” (Galapagos NV, priority 2011, dated 2014)

Target: T1, GPR43 (Homo sapiens, UniProt O15552)
T1 construct: expressed in transfected cells
T1 sequence (O15552 1-330): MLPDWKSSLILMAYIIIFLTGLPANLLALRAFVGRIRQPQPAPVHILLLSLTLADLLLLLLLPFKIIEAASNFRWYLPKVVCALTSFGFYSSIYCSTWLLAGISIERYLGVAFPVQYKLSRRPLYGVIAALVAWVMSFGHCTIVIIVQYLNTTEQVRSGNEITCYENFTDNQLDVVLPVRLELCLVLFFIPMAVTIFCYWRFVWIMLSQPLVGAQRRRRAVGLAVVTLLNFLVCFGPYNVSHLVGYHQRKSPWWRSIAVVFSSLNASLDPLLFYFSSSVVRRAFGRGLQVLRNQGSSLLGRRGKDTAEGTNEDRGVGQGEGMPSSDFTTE
Assay: Calcium mobilization assay with probenecid
Type: cell-based
Settings: GPR43 stably expressing cells; triggered with sodium acetate at EC80; 2.5 mM probenecid; read-out: GPR43 assay with probenicid IC50
In short: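 Cells stably expressing GPR43 plated overnight at 37 °C, then loaded 2 h with Calcium 4 dye plus 2.5 mM probenecid. […]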

SMILES | IC50 [nM]
Cc1cc(C)cc(OC(=O)N2CCC2(C)C(=O)N(CCCC(=O)O)Cc2ccc(Cl)cc2)c1 (stereo not shown) [Compound 196, 2-[(3-Carboxy-propyl)-(4-chloro-benzyl)-carbamoyl]-2-methyl-azetidine-1-carboxylic acid 3,5-dimethyl-phenyl ester] | 0.01 to 100
C[C@H](c1ccc(Cl)cc1)N(CCCC(=O)O)C(=O)[C@@]1(C)CCN1C(=O)c1csc2ccccc12 [Compound 197, 4-{[(R)-1-(Benzo[b]thiophene-3-carbonyl)-2-methyl-azetidine-2-carbonyl]-[(R)-1-(4-chloro-phenyl)-ethyl]-amino}-butyric acid] | 501 to 1000
O=C(O)CCCN(Cc1cccc(Cl)c1)C(=O)C1(Cc2ccccc2)CCN1C(=O)c1csc2ccccc12 (stereo not shown) [Compound 199, 4-[[1-(Benzo[b]thiophene-3-carbonyl)-2-benzyl-azetidine-2-carbonyl]-(3-chloro-benzyl)-amino]-butyric acid] | 101 to 500
Cc1cc(C)cc(NC(=O)N2CCC2(C)C(=O)N(CCCC(=O)O)Cc2ccc(Cl)cc2)c1 (stereo not shown) [Compound 200, 4-{(4-chloro-benzyl)-[1-(3,5-dimethyl-phenylcarbamoyl)-2-methyl-azetidine-2-carbonyl]-amino}-butyric acid] | > 1000
Cc1cc(C)cc(N(C)C(=O)N2CCC2(C)C(=O)N(CCCC(=O)O)Cc2ccc(Cl)cc2)c1 (stereo not shown) [Compound 201, 4-((4-Chloro-benzyl)-{1-[(3,5-dimethyl-phenyl)-methyl-carbamoyl]-2-methyl-azetidine-2-carbonyl}-amino)-butyric acid] | > 1000
CC1(C(=O)N(CCCC(=O)O)Cc2ccc(Cl)cc2)CCN1C(=O)Oc1ccccc1Cl (stereo not shown) [Compound 202, 2-[(3-Carboxy-propyl)-(4-chloro-benzyl)-carbamoyl]-2-methyl-azetidine-1-carboxylic acid 2-chloro-phenyl ester] | > 1000
CC(C)C1(C(=O)N(CCCC(=O)O)Cc2cccc(Cl)c2)CCN1C(=O)c1csc2ccccc12 (stereo not shown) [Compound 203, 4-[[1-(Benzo[b]thiophene-3-carbonyl)-2-isopropyl-azetidine-2-carbonyl]-(3-chloro-benzyl)-amino]-butyric acid] | 0.01 to 100
CCCC1(C(=O)N(CCCC(=O)O)Cc2cccc(Cl)c2)CCN1C(=O)c1csc2ccccc12 (stereo not shown) [Compound 204, 4-[[1-(Benzo[b]thiophene-3-carbonyl)-2-propyl-azetidine-2-carbonyl]-(3-chloro-benzyl)-amino]-butyric acid] | 0.01 to 100
Cc1ccccc1OC(=O)N1CCC1(C)C(=O)N(CCCC(=O)O)Cc1ccc(Cl)cc1 (stereo not shown) [Compound 205, 2-[(3-Carboxy-propyl)-(4-chloro-benzyl)-carbamoyl]-2-methyl-azetidine-1-carboxylic acid o-tolyl ester] | > 1000
CC1(C(=O)N(CCCS(N)(=O)=O)c2ccc(Cl)cc2)CCN1C(=O)c1csc2ccccc12 (stereo not shown) [Compound 206, 1-(Benzo[b]thiophene-3-carbonyl)-2-methyl-azetidine-2-carboxylic acid (4-chloro-phenyl)-(3-sulfamoyl-propyl)-amide] | 0.01 to 100
C[C@]1(C(=O)N(CCCC(=O)NS(C)(=O)=O)Cc2cccc(Cl)c2)CCN1C(=O)c1csc2ccccc12 [Compound 207, (R)-1-(benzo[b]thiophene-3-carbonyl)-N-(3-chlorobenzyl)-2-methyl-N-(4-(methylsulfonamido)-4-oxobutyl)azetidine-2-carboxamide] | 0.01 to 100
CCC1(C(=O)N(CCCS(N)(=O)=O)Cc2cccc(Cl)c2)CCN1C(=O)c1csc2ccccc12 (stereo not shown) [Compound 208, 1-(benzo[b]thiophene-3-carbonyl)-N-(3-chlorobenzyl)-2-ethyl-N-(3-sulfamoylpropyl)azetidine-2-carboxamide] | 0.01 to 100
C[C@@H](c1ccc(Cl)cc1)N(CCCS(N)(=O)=O)C(=O)C1(C)CCN1C(=O)c1csc2ccccc12 (stereo partly drawn) [Compound 209, 1-(benzo[b]thiophene-3-carbonyl)-N-((S)-1-(4-chlorophenyl)ethyl)-2-methyl-N-(3-sulfamoylpropyl)azetidine-2-carboxamide] | 101 to 500
CC1(C(=O)N(CCCC(=O)O)Cc2ccc(Cl)cc2)CCN1C(=O)Oc1ccccc1F (stereo not shown) [Compound 210, 4-(N-(4-chlorobenzyl)-1-((2-fluorophenoxy)carbonyl)-2-methylazetidine-2-carboxamido)butanoic acid] | > 1000
CC1(C(=O)N(CCCC(=O)O)Cc2ccc(Cl)cc2)CCN1C(=O)Oc1csc2ccccc12 (stereo not shown) [Compound 211, 4-(1-((benzo[b]thiophen-3-yloxy)carbonyl)-N-(4-chlorobenzyl)-2-methylazetidine-2-carboxamido)butanoic acid] | 0.01 to 100
Cc1ccc(OC(=O)N2CCC2(C)C(=O)N(CCCC(=O)O)Cc2ccc(Cl)cc2)c(C)c1 (stereo not shown) [Compound 213, 4-(N-(4-chlorobenzyl)-1-((2,4-dimethylphenoxy)carbonyl)-2-methylazetidine-2-carboxamido)butanoic acid] | > 1000
COc1ccc(Cl)c(OC(=O)N2CCC2(C)C(=O)N(CCCC(=O)O)Cc2ccc(Cl)cc2)c1 (stereo not shown) [Compound 215, 4-(1-((2-chloro-5-methoxyphenoxy)carbonyl)-N-(4-chlorobenzyl)-2-methylazetidine-2-carboxamido)butanoic acid] | > 1000
CCC1(C(=O)N(CCCS(N)(=O)=O)Cc2ccc(Cl)cc2)CCN1C(=O)c1csc2ccccc12 (stereo not shown) [Compound 216, 1-(benzo[b]thiophene-3-carbonyl)-N-(4-chlorobenzyl)-2-ethyl-N-(3-sulfamoylpropyl)azetidine-2-carboxamide] | 101 to 500
CC(C)C1(C(=O)N(CCCS(N)(=O)=O)Cc2cccc(Cl)c2)CCN1C(=O)c1csc2ccccc12 (stereo not shown) [Compound 217, 1-(benzo[b]thiophene-3-carbonyl)-N-(3-chlorobenzyl)-2-isopropyl-N-(3-sulfamoylpropyl)azetidine-2-carboxamide] | 101 to 500
COc1cccc(OC(=O)N2CCC2(C)C(=O)N(CCCC(=O)O)Cc2ccc(Cl)cc2)c1 (stereo not shown) [Compound 218, 4-(N-(4-chlorobenzyl)-1-((3-methoxyphenoxy)carbonyl)-2-methylazetidine-2-carboxamido)butanoic acid] | 101 to 500

Other lines, results leading:

IC50 [nM] | SMILES
101 to 500 | O=C(O)CCCN(Cc1cccc(Cl)c1)C(=O)C1(Cc2ccc(F)cc2)CCN1C(=O)c1csc2ccccc12 (stereo not shown) [Compound 219, 4-(1-(benzo[b]thiophene-3-carbonyl)-N-(3-chlorobenzyl)-2-(4-fluorobenzyl)azetidine-2-carboxamido)butanoic acid]
501 to 1000 | Cc1cccc(CC2(C(=O)N(CCCC(=O)O)Cc3cccc(Cl)c3)CCN2C(=O)c2csc3ccccc23)c1 (stereo not shown) [Compound 220, 4-(1-(benzo[b]thiophene-3-carbonyl)-N-(3-chlorobenzyl)-2-(3-methylbenzyl)azetidine-2-carboxamido)butanoic acid]
101 to 500 | COc1cccc(CC2(C(=O)N(CCCC(=O)O)Cc3cccc(Cl)c3)CCN2C(=O)c2csc3ccccc23)c1 (stereo not shown) [Compound 221, 4-(1-(benzo[b]thiophene-3-carbonyl)-N-(3-chlorobenzyl)-2-(3-methoxybenzyl)azetidine-2-carboxamido)butanoic acid]
> 1000 | O=C(O)CCCN(Cc1cccc(Cl)c1)C(=O)C1(Cc2cccc(C(F)(F)F)c2)CCN1C(=O)c1csc2ccccc12 (stereo not shown) [Compound 222, 4-(1-(benzo[b]thiophene-3-carbonyl)-N-(3-chlorobenzyl)-2-(3-(trifluoromethyl)benzyl)azetidine-2-carboxamido)butanoic acid]
> 1000 | Cc1ccc(OC(=O)N2CCC2(C)C(=O)N(CCCC(=O)O)Cc2ccc(Cl)cc2)c(Cl)c1 (stereo not shown) [Compound 223, 4-(1-((2-chloro-4-methylphenoxy)carbonyl)-N-(4-chlorobenzyl)-2-methylazetidine-2-carboxamido)butanoic acid]
> 1000 | COc1ccc(OC(=O)N2CCC2(C)C(=O)N(CCCC(=O)O)Cc2ccc(Cl)cc2)c(Cl)c1 (stereo not shown) [Compound 224, 4-(1-((2-chloro-4-methoxyphenoxy)carbonyl)-N-(4-chlorobenzyl)-2-methylazetidine-2-carboxamido)butanoic acid]
501 to 1000 | O=C(O)CCCN(Cc1cccc(Cl)c1)C(=O)C1(Cc2ccc(Cl)cc2)CCN1C(=O)c1csc2ccccc12 (stereo not shown) [Compound 225, 4-(1-(benzo[b]thiophene-3-carbonyl)-N-(3-chlorobenzyl)-2-(4-chlorobenzyl)azetidine-2-carboxamido)butanoic acid]
> 1000 | CC1(C(=O)N(CCCC(=O)O)Cc2ccc(Cl)cc2)CCN1C(=O)Oc1ccc(C(F)(F)F)cc1 (stereo not shown) [Compound 226, 4-(N-(4-chlorobenzyl)-2-methyl-1-((4-(trifluoromethyl)phenoxy)carbonyl)azetidine-2-carboxamido)butanoic acid]
501 to 1000 | CSc1ccc(OC(=O)N2CCC2(C)C(=O)N(CCCC(=O)O)Cc2ccc(Cl)cc2)cc1 (stereo not shown) [Compound 227, 4-(N-(4-chlorobenzyl)-2-methyl-1-((4-(methylthio)phenoxy)carbonyl)azetidine-2-carboxamido)butanoic acid]
0.01 to 100 | CCC1(C(=O)N(CCCC(=O)NS(C)(=O)=O)Cc2cccc(Cl)c2)CCN1C(=O)c1csc2ccccc12 (stereo not shown) [Compound 228, 1-(benzo[b]thiophene-3-carbonyl)-N-(3-chlorobenzyl)-2-ethyl-N-(4-(methylsulfonamido)-4-oxobutyl)azetidine-2-carboxamide]
0.01 to 100 | C=CCC1(C(=O)N(CCCC(=O)NS(C)(=O)=O)Cc2cccc(Cl)c2)CCN1C(=O)c1csc2ccccc12 (stereo not shown) [Compound 229, 2-allyl-1-(benzo[b]thiophene-3-carbonyl)-N-(3-chlorobenzyl)-N-(4-(methylsulfonamido)-4-oxobutyl)azetidine-2-carboxamide]
